Results: patent publication US6054435A, “6-O-substituted macrolides having antibacterial activity” (priority 1999, dated 2000)
≈ marks a conversion by molar mass, not a printed value.

Experiments:
Assay in all cases: in vitro antibacterial activity (MIC), agar dilution
Assay type in all cases: cell-based
[1] = test system: Streptococcus agalactiae CMX 508; settings: organism code KK; BHI agar, 35-37° C., 20 to 24 hours; unit assumed
Protocol: (§1) Representative compounds of the present invention were assayed in vitro for antibacterial activity as follows: Twelve petri dishes containing successive aqueous dilutions of the test compound mixed with 10 mL of sterilized Brain Heart Infusion (BHI) agar (Difco 0418-01-5) were prepared. Each plate was inoculated with 1:100 (or 1:10 for slow-growing strains, such as Micrococcus and Streptococcus) dilutions of up to 32 different microorganisms, using a Steers replicator block. […] In addition, a control plate, using BHI agar containing no test compound, was prepared and incubated at the beginning and end of each test.
(§2) An additional plate containing a compound having known susceptibility patterns for the organisms being tested and belonging to the same antibiotic class as the test compound was also prepared and incubated as a further control, as well as to provide test-to-test comparability.
(§3) After incubation, each plate was visually inspected. The minimum inhibitory concentration (MIC) was defined as the lowest concentration of drug yielding no growth, a slight haze, or sparsely isolated colonies on the inoculum spot as compared to the growth control.

[2] = test system: Staphylococcus aureus A5177; settings: organism code BB; BHI agar, 35-37° C., 20 to 24 hours; unit assumed
Protocol: as §1, §2, §3

[3] = test system: Streptococcus Pneumonia 5649; settings: organism code ZZA; BHI agar, 35-37° C., 20 to 24 hours; unit assumed
Protocol: as §1, §2, §3

[4] = test system: Micrococcus luteus ATCC 9341; settings: organism code OO; BHI agar, 35-37° C., 20 to 24 hours; unit assumed
Protocol: as §1, §2, §3

[5] = test system: Staphylococcus aureus A-5278; settings: organism code CC; BHI agar, 35-37° C., 20 to 24 hours; unit assumed
Protocol: as §1, §2, §3

[6] = test system: Streptococcus pyogenes PIU 2548; settings: organism code NN; BHI agar, 35-37° C., 20 to 24 hours; unit assumed
Protocol: as §1, §2, §3

Escherichia coli SS = settings: organism code RR; BHI agar, 35-37° C., 20 to 24 hours; unit assumed
Protocol: as §1, §2, §3

Escherichia coli JUHL = settings: organism code QQ; BHI agar, 35-37° C., 20 to 24 hours; unit assumed
Protocol: as §1, §2, §3

[7] = test system: Staphylococcus aureus CMX 642A; settings: organism code DD; BHI agar, 35-37° C., 20 to 24 hours; unit assumed
Protocol: as §1, §2, §3

[8] = test system: Streptococcus Pneumonia 5979; settings: organism code ZZ; BHI agar, 35-37° C., 20 to 24 hours; unit assumed
Protocol: as §1, §2, §3

[9] = test system: Staphylococcus aureus CMX 553; settings: organism code FF; BHI agar, 35-37° C., 20 to 24 hours; unit assumed
Protocol: as §1, §2, §3

[10] = test system: Enterococcus faecium ATCC 8043; settings: organism code II; BHI agar, 35-37° C., 20 to 24 hours; unit assumed
Protocol: as §1, §2, §3

[11] = test system: Staphylococcus aureus 1775; settings: organism code GG; BHI agar, 35-37° C., 20 to 24 hours; unit assumed
Protocol: as §1, §2, §3

[12] = test system: Mycobacterium smegmatis ATCC 114; settings: organism code UU; BHI agar, 35-37° C., 20 to 24 hours; unit assumed
Protocol: as §1, §2, §3

[13] = test system: Streptococcus bovis A-5169; settings: organism code JJ; BHI agar, 35-37° C., 20 to 24 hours; unit assumed
Protocol: as §1, §2, §3

Candida albicans CCH 442 = settings: organism code TT; BHI agar, 35-37° C., 20 to 24 hours; unit assumed
Protocol: as §1, §2, §3

[14] = test system: Staphylococcus epidermidis 3519; settings: organism code HH; BHI agar, 35-37° C., 20 to 24 hours; unit assumed
Protocol: as §1, §2, §3

[15] = test system: Nocardia Asteroides ATCC9970; settings: organism code VV; BHI agar, 35-37° C., 20 to 24 hours; unit assumed
Protocol: as §1, §2, §3

[16] = test system: Streptococcus Pneumonia ATCC6303; settings: organism code XX; BHI agar, 35-37° C., 20 to 24 hours; unit assumed
Protocol: as §1, §2, §3

[17] = test system: Staphylococcus aureus ATCC 6538P; settings: organism code AA; BHI agar, 35-37° C., 20 to 24 hours; unit assumed
Protocol: as §1, §2, §3

Escherichia coli DC-2 = settings: organism code SS; BHI agar, 35-37° C., 20 to 24 hours; unit assumed
Protocol: as §1, §2, §3

[18] = test system: Staphylococcus aureus NCTC10649M; settings: organism code EE; BHI agar, 35-37° C., 20 to 24 hours; unit assumed
Protocol: as §1, §2, §3

[19] = test system: Micrococcus luteus ATCC 4698; settings: organism code PP; BHI agar, 35-37° C., 20 to 24 hours; unit assumed
Protocol: as §1, §2, §3

[20] = test system: Streptococcus pyogenes EES61; settings: organism code LL; BHI agar, 35-37° C., 20 to 24 hours; unit assumed
Protocol: as §1, §2, §3

[21] = test system: Streptococcus Pneumonia GYR 1171; settings: organism code YY; BHI agar, 35-37° C., 20 to 24 hours; unit assumed
Protocol: as §1, §2, §3

[22] = test system: Streptococcus pyogenes 930; settings: organism code MM; BHI agar, 35-37° C., 20 to 24 hours; unit assumed
Protocol: as §1, §2, §3

[23] = test system: Haemophilis Influenzae DILL AMP R; settings: organism code WW; BHI agar, 35-37° C., 20 to 24 hours; unit assumed
Protocol: as §1, §2, §3

Compound | MIC [1] [µg/mL] | MIC [2] [µg/mL] | MIC [3] [µg/mL] | MIC [4] [µg/mL] | MIC [5] [µg/mL] | MIC [6] [µg/mL] | MIC (Escherichia coli SS) [µg/mL] | MIC (Escherichia coli JUHL) [µg/mL] | MIC [7] [µg/mL] | MIC [8] [µg/mL] | MIC [9] [µg/mL] | MIC [10] [µg/mL] | MIC [11] [µg/mL] | MIC [12] [µg/mL] | MIC [13] [µg/mL] | MIC (Candida albicans CCH 442) [µg/mL] | MIC [14] [µg/mL] | MIC [15] [µg/mL] | MIC [16] [µg/mL] | MIC [17] [µg/mL] | also measured
CC[C@H]1OC(=O)[C@H](C)C(=O)[C@H](C)[C@@H](O[C@@H]2O[C@H](C)C[C@H](N(C)C)[C@H]2O)[C@](C)(OC/C=C/c2cncc(-c3cccnc3)c2)C[C@@H](C)C(=O)[C@H](C)[C@H]2NC(=O)O[C@@]21C [Example 47] | 0.01 (≈ 0.0126 µM) | 0.05 (≈ 0.0631 µM) | 0.5 (≈ 0.631 µM) | 0.01 (≈ 0.0126 µM) | > 100 | 0.2 (≈ 0.252 µM) | 0.39 (≈ 0.492 µM) | 50 (≈ 63.1 µM) | 0.05 (≈ 0.0631 µM) | > 128 | 0.05 (≈ 0.0631 µM) | 0.05 (≈ 0.0631 µM) | > 100 | 0.78 (≈ 0.984 µM) | 0.01 (≈ 0.0126 µM) | > 100 | 0.1 (≈ 0.126 µM) | 0.05 (≈ 0.0631 µM) | 0.008 (≈ 0.0101 µM) | 0.05 (≈ 0.0631 µM) | MIC (Escherichia coli DC-2): 25 µg/mL (≈ 31.5 µM); MIC [18]: 0.1 µg/mL (≈ 0.126 µM); MIC [19]: 0.2 µg/mL (≈ 0.252 µM); MIC [20]: 0.02 µg/mL (≈ 0.0252 µM); MIC [21]: 0.008 µg/mL (≈ 0.0101 µM); MIC [22]: 50 µg/mL (≈ 63.1 µM)
CC[C@H]1OC(=O)[C@H](C)C(=O)[C@H](C)[C@@H](O[C@@H]2O[C@H](C)C[C@H](N(C)C)[C@H]2O)[C@](C)(OC/C=C/c2cncc(-c3cncc4ccccc34)c2)C[C@@H](C)C(=O)[C@H](C)[C@H]2NC(=O)O[C@@]21C [Example 48] | 0.02 (≈ 0.0237 µM) | 0.2 (≈ 0.237 µM) | 0.25 (≈ 0.297 µM) | 0.05 (≈ 0.0593 µM) | > 100 | 0.2 (≈ 0.237 µM) | 0.78 (≈ 0.925 µM) | > 100 | 0.2 (≈ 0.237 µM) | 16 (≈ 19 µM) | 0.2 (≈ 0.237 µM) | 0.05 (≈ 0.0593 µM) | > 100 | 0.78 (≈ 0.925 µM) | 0.02 (≈ 0.0237 µM) | > 100 | 0.2 (≈ 0.237 µM) | 0.05 (≈ 0.0593 µM) | ≤ 0.004 | 0.2 (≈ 0.237 µM) | MIC (Escherichia coli DC-2): > 100 µg/mL; MIC [18]: 0.2 µg/mL (≈ 0.237 µM); MIC [19]: 0.1 µg/mL (≈ 0.119 µM); MIC [20]: 0.05 µg/mL (≈ 0.0593 µM); MIC [21]: ≤ 0.004 µg/mL; MIC [22]: 100 µg/mL (≈ 119 µM)
CC[C@H]1OC(=O)[C@H](C)C(=O)[C@H](C)[C@@H](O[C@@H]2O[C@H](C)C[C@H](N(C)C)[C@H]2O)[C@](C)(OC/C=C/c2cncc(-c3ccsc3)c2)C[C@@H](C)C(=O)[C@H](C)[C@H]2NC(=O)O[C@@]21C [Example 49] | 0.02 (≈ 0.0251 µM) | 0.05 (≈ 0.0627 µM) | 0.03 (≈ 0.0376 µM) | 0.02 (≈ 0.0251 µM) | > 100 | 0.2 (≈ 0.251 µM) | 0.39 (≈ 0.489 µM) | 50 (≈ 62.7 µM) | 0.1 (≈ 0.125 µM) | 32 (≈ 40.1 µM) | 0.05 (≈ 0.0627 µM) | 0.05 (≈ 0.0627 µM) | > 100 | 0.39 (≈ 0.489 µM) | 0.02 (≈ 0.0251 µM) | > 100 | 0.1 (≈ 0.125 µM) | 0.05 (≈ 0.0627 µM) | ≤ 0.004 | 0.1 (≈ 0.125 µM) | MIC (Escherichia coli DC-2): 50 µg/mL (≈ 62.7 µM); MIC [18]: 0.1 µg/mL (≈ 0.125 µM); MIC [19]: 0.05 µg/mL (≈ 0.0627 µM); MIC [20]: 0.02 µg/mL (≈ 0.0251 µM); MIC [21]: ≤ 0.004 µg/mL; MIC [22]: 25 µg/mL (≈ 31.3 µM)
CC[C@H]1OC(=O)[C@H](C)C(=O)[C@H](C)[C@@H](O[C@@H]2O[C@H](C)C[C@H](N(C)C)[C@H]2O)[C@](C)(OC/C=C/c2cnc(-c3ncc(Br)s3)s2)C[C@@H](C)C(=O)[C@H](C)[C@H]2NC(=O)O[C@@]21C [Example 56] | 0.05 (≈ 0.0566 µM) | 0.2 (≈ 0.226 µM) | 0.25 (≈ 0.283 µM) | 0.05 (≈ 0.0566 µM) | 100 (≈ 113 µM) | 0.39 (≈ 0.441 µM) | 0.78 (≈ 0.882 µM) | > 10 | 0.2 (≈ 0.226 µM) | 4 (≈ 4.53 µM) | 0.2 (≈ 0.226 µM) | 0.05 (≈ 0.0566 µM) | 50 (≈ 56.6 µM) | 0.39 (≈ 0.441 µM) | 0.05 (≈ 0.0566 µM) | > 100 | 0.2 (≈ 0.226 µM) | 0.39 (≈ 0.441 µM) | 0.015 (≈ 0.017 µM) | 0.2 (≈ 0.226 µM) | MIC [23]: 8 µg/mL (≈ 9.05 µM); MIC (Escherichia coli DC-2): > 100 µg/mL; MIC [18]: 0.39 µg/mL (≈ 0.441 µM); MIC [19]: 0.39 µg/mL (≈ 0.441 µM); MIC [20]: 0.05 µg/mL (≈ 0.0566 µM); MIC [21]: 0.015 µg/mL (≈ 0.017 µM)
